From publication PMC10377601, “Side Chain-Modified Benzothiazinone Derivatives with Anti-Mycobacterial Activity” (Biomedicines, 2023)
Values after ≈ are worked out from the molar mass of the structure shown.

Assays:
[1] = Cytotoxicity against HepG2 cell, MTT assay; assay type: cell-based; conditions: human, HepG2 cells, at 5.0 μg/mL, 24 h
Protocol: (§1) HepG2 cells we r e obtained from the Chinese Type Culture Collection (Shanghai, China) and maintained in Dulbecco’s modiﬁed eagle medium (Gibco; #C11995500BT) con‐ taining 1% (v/v) penicillin/streptomycin (Beyotime; #C0222) and 10% (v/v) fetal bovine se‐ rum (Gibco; #GB10270106) in an atmosphere of 5% CO2 at 37 °C. HepG2 cells we r e seeded into 96‐we l l plates at a density of 5,000 cells/well (100 µL total volume) and treated with diﬀerent concentrations of compound 2 and 37 (0, 0.025, 0.2, 1, 5, and 10 µg/mL). After 24 h the medium wa s removed and the cells we r e incubated in a fresh medium containing 5 mg/mL MTT for 4 h. The medium wa s then removed and the precipitated formazan wa s dissolved in 100 µL of DMSO followed by shaking for 10 min. Finally, the absorbance at 570 nm wa s measured on a microplate spectrophotometer. Each treatment wa s performed […]
(§2) Figure S1. Inhibitory activity of compounds 2 and 37 against HepG2 cell. […]

HepG2 cell = assay: Cytotoxicity against HepG2 cell, MTT assay; assay type: cell-based; conditions: at a concentration lower than 1.0 μg/mL
Protocol: as §1, §2

[2] = molecular target: T1, recombinant M. tuberculosis DprE1 enzyme (Mycobacterium tuberculosis, UniProt P9WJF1); assay: DprE1 inhibition, Amplex Red/peroxidase coupled assay; assay type: biochemical; conditions: Mtb DprE1
T1 construct: made in house; host or cells: E. coli
T1 sequence (P9WJF1 whole entry): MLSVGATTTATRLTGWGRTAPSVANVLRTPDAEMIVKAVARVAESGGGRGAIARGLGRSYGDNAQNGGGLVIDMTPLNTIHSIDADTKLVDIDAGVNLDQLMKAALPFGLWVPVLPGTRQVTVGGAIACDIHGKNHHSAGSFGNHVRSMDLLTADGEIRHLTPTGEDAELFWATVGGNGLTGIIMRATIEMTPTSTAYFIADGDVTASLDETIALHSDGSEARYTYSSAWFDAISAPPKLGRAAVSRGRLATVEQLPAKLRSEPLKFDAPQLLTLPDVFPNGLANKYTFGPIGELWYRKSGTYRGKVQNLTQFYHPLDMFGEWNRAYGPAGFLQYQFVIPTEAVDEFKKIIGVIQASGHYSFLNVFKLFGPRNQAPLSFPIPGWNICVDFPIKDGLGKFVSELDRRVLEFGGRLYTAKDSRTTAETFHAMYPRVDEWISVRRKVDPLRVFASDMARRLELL

M. tuberculosis H37Rv [3] = assay: [14C]-acetate metabolic labeling, TLC analysis of lipids; assay type: cell-based; conditions: Mtb H37Rv, 10 × MIC, 100 × MIC, 24 h, compared to control bacteria
[4] = Pharmacokinetic study in mice; assay type: in vivo; conditions: male, ICR, mouse, plasma; for clearance: read-out: Clint (hepatic clearance) (converted); for bioavailability: oral, p.o. 10 mg/kg vs i.v. 2 mg/kg, read-out: F (oral bioavailability)
From the text: Animal Care and Welfare Committee of Shanghai Institute of Materia Medica, Chinese Academy of Sciences approved all animal protocols. All animal programs are in compliance with the Guide for the Care and Use of Laboratory Animals issued by Shanghai Association on Laboratory Animal Care (SALAC). SPF male ICR mice weighing 25–27 g were divided into two groups, three mice in each group. The tested compounds were administrated via oral and intravenous injection, separately. […] The compound was co-dissolved by using 0.5% carboxymethyl cellulose for p.o. administration, and 10% DMSO/40%PEG400/40% water was used for i.v. administration, respectively. After oral dosing or i.v. administration, the blood was sampled at 5, 15, 30 min, and 1, 2, 4, 7, and 24 h. The sample plasma was harvested and stored at −80 °C for analysis. Based on noncompartmental analysis (Pharsight Corporation, Sunnyvale, CA, USA), the pharmacokinetic data were analyzed using WinNonlin software version 6.3.

E. coli = assay: Inhibitory potency against E. coli; assay type: cell-based; conditions: at 16 µg/mL
M. tuberculosis H37Rv [5] = assay: In vivo efficacy, mouse model acutely infected with Mtb H37Rv, lung CFU; conditions: BALB/C mice, oral 50 mg/kg once per day for 4 weeks except weekends
[6] = Kinetic solubility in PBS; conditions: pH 7.4, aqueous buffer, kinetic from dmso stock
M. tuberculosis H37Rv [7] = assay: MIC determination by microplate alamar blue assay (MABA); assay type: cell-based; conditions: Mycobacterium tuberculosis
in vitro = in vitro ADME; set-up: dose or concentration left out as unconfirmed; conditions: human, microsomes, pH 7.4
Protocol: The compounds’ metabolic stability were determined in human liver microsomes. A solution of microsomes (0.2 mg/mL) containing the compounds […], NADPH (1 mM), and phosphate buffer (100 mM, pH 7.4) were prepared. Pre-incubation was conducted at 37 °C for 10 min. There was addition of 50 µL and 5 mM NADPH to initiate the reaction. At 5, 15, 30, 60, or 120 min, 30 µL of reaction solution was taken out and quenched with 300 µL internal standard tolbutamide (10 ng/mL) in cold CH3CN. The mixture was centrifuged at 6000 rpm for 15 min at 4 °C. Then, 100 μL supernatant was diluted with 100 uL ultrapure water (Millipore, ZMQS50F01). The solution was analyzed via LC/MS analysis.

[8] = test system: Mycobacterium tuberculosis; set-up: method as in PMID 24500695; conditions: whole-cell activity; cited from earlier work
physchem = conditions: pH 7.4, aqueous buffer, kinetic from dmso stock

SMILES | viability at 24 h, 5 μg/mL [1] [%] | Inhibition of HepG2 cell viability (HepG2 cell) | IC50 [2] [µM] | Lipid profile after [14C]-acetate labeling (M. tuberculosis H37Rv [3]) | AUC ([4]; IV 2 mg/kg) [ng·h/mL] | Cmax ([4]; IV 2 mg/kg) [ng/mL] | MRT ([4]; IV 2 mg/kg) [h] | half-life ([4]; IV 2 mg/kg) [h] | clearance ([4]; IV 2 mg/kg) [mL/min/kg] | AUC ([4]; PO 10 mg/kg) [ng·h/mL] | Cmax ([4]; PO 10 mg/kg) [ng/mL] | MRT ([4]; PO 10 mg/kg) [h] | half-life ([4]; PO 10 mg/kg) [h] | bioavailability [4] [%] | Inhibitory potency against E. coli (E. coli) | Reduction of bacteria load in the lungs compared to the control group (M. tuberculosis H37Rv [5]) | solubility at 4 h [6] [µg/mL] | MIC (M. tuberculosis H37Rv [7]; Mtb H37Rv, MABA) [nM] | CLint scaled (in vitro) [mL/min/kg] | half-life (in vitro) [h] | other results
CN(Cc1cn(-c2ccccc2)nn1)c1nc(=O)c2cc(C(F)(F)F)cc([N+](=O)[O-])c2s1 [Compound 2, 2-{methyl[(1-phenyl-1H-1,2,3-triazol-4-yl)methyl]amino}-BTZ] | 72 to 75 | No inhibition of cell viability | 0.02 to 0.75 | accumulated trehalose monomycolates (TMM) and trehalose dimycolates (TDM) | 1210 | 1250 | 1.5 | 1.1 | 27.8 | 2190 | 1800 | 2 | 1.3 | 35.7 | no obvious activity | barely displayed efficacy | 0.13 (≈ 0.281 µM) | 9 | 17.3 | 1.67 | MIC (M. tuberculosis H37Rv [7]; 168 h, Mtb H37Rv, MABA): 9 nM
CN(Cc1nnc(-c2ccccc2)o1)c1nc(=O)c2cc(C(F)(F)F)cc([N+](=O)[O-])c2s1 [Compound 37, 2-{methyl[(5-phenyl-1,3,4-oxadiazol-2-yl)methyl]amino}-BTZ] | 72 to 75 | No inhibition of cell viability | 0.02 to 0.75 | accumulated trehalose monomycolates (TMM) and trehalose dimycolates (TDM) | 528 | 1860 | 0.4 | 0.3 | 64 | 1870 | 1890 | 0.9 | 0.6 | 70.6 | no obvious activity | 1.2 logs | 0.25 (≈ 0.539 µM) | 6 | 25.5 | 1.14 | 
O=c1nc(N2CCN(CC3CCCCC3)CC2)sc2c([N+](=O)[O-])cc(C(F)(F)F)cc12 [PBTZ169, reference compound] |  |  |  | accumulated trehalose monomycolates (TMM) and trehalose dimycolates (TDM) |  |  |  |  |  |  |  |  |  |  |  | 3 logs |  | < 4 |  |  | minimal inhibitory concentration (MIC) [8]: lower than 0.004 µM; MIC (M. tuberculosis H37Rv [7]; H37Rv, Table S1): 0.2 ng/mL; solubility at 4 h (physchem): < 0.011 µg/mL
